Read-outs that look alike come from different tables or passages of the source.
Experiments:
RAW 264.7 cells = assay: MitoTracker Red live cell staining (mitochondrial membrane potential); format: cell-based, murine; details: 10 μM
Method: Cells were cultured with CFZ or CLDI media for 24 h in chamber slides (Lab Tek) and stained with 150 nM of MitoTracker Red CMXRos (MTR, Life Technologies) in fresh media for 45 min, and then NucBlue Live Cell Stain (Life Technologies) was applied for 10 min for nuclear staining. After incubation, extracellular MTR and NucBlue were washed twice with DPBS and the cells were visualized on a Nikon Eclipse Ti fluorescence microscope (Japan) using Texas Red (Mitotracker) and DAPI (NucBlue) filters. Real-time live cell images were captured every 10 sec for 30 min with the same microscope and video was created using the Nikon Elements software. For confocal imaging of intracellular CLDIs, FM 1-43 (Life Technologies) was used at 3.5 μM (15 min at 37° C.) for membrane staining followed by NucBlue (10 min). After washing with DPBS, cells were visualized using laser-scanning confocal microscopy (Olympus Fluoview 500) fitted with argon (FITC) and HeNe Red lasers (Cy5). Images were taken along the z-axis with a 60× objective at 0.25 μm intervals and the composite Z-stack images were created using the Nikon Elements software.

alveolar macrophages = tested on: alveolar macrophages; parameters: species or system mice; details: mouse, in vivo, 6 weeks
Method: (§1) Clofazimine (CFZ, Sigma-Aldrich, C8895) was prepared in sesame oil (Shirakiku, Japan, or Roland, China) and Powdered Lab Diet 5001 (PMI International, Inc., St. Louis, Mo.) and orally administrated to Wild-type (WT) C57BL/6 mice or IL-1RA^−/− (4-5 week old, Jackson Laboratory, Bar Harbor, Me.) for up to 8 weeks ad libitum as previously described (Baik et al., 2013, supra; Baik et al., 2011, supra). Control mice were fed with the same diet without CFZ. The animal protocol was approved by the University of Michigan's Animal Care and Use Committee in accordance with the National Institutes of Health guidelines (UCUCA #PRO0005111).
PBS/LPS-instilled CFZ- or control mice were euthanized by exsanguination while deeply anesthetized with an intraperitoneal injection of ketamine/xylazine. The trachea was surgically exposed and cannulated with an 18 G needle and the lungs were lavaged by instilling 1 ml DPBS (Life Technologies) containing 0.5 mM EDTA (Sigma). The retrieved BAL was then centrifuged (10 min at 400×g, 4° C.), and the supernatant was frozen (−80° C.), while the cell pellets were resuspended in 1 ml RPMI 1640 media (Life Technologies). To count total cells, the cells were stained with Trypan blue and counted using a hemocytometer. […]

[1] = tested on: caspase 1, IL-1β, TNFα, IL-1RA; assay: Inflammasome proteins and cytokines in organs of CFZ-treated mice; format: in vivo
Method: Clofazimine (CFZ, Sigma-Aldrich, C8895) was prepared in sesame oil (Shirakiku, Japan, or Roland, China) and Powdered Lab Diet 5001 (PMI International, Inc., St. […] Baik et al., 2011, supra). Control mice were fed with the same diet without CFZ. The animal protocol was approved by the University of Michigan's Animal Care and Use Committee in accordance with the National Institutes of Health guidelines (UCUCA #PRO0005111). Mouse Bronchoalveolar Lavage (BAL) Harvest and Isolation of Alveolar Macrophages, Immunohistochemistry and Imaging, SDS-PAGE and Western Blot, Cytokine Measurements

IL-1RA, TNFα, IL-1β = assay: Serum cytokines of CFZ-treated mice; format: in vivo
Method: as §1
Mouse Bronchoalveolar Lavage (BAL) Harvest and Isolation of Alveolar Macrophages, Immunohistochemistry and Imaging, SDS-PAGE and Western Blot, Cytokine Measurements

[2] = humans; cited from earlier work
TLR4 = assay: TNFα ELISA after LPS stimulation; format: cell-based, murine; details: Mus musculus, read-out: inhibition of TNFα production
Method: The murine macrophage cell line RAW 264.7 was purchased from ATCC (Manassas, Va.) and maintained in DMEM (Life Technologies, Carlsbad, Calif.) supplemented with 10% FBS. Soluble CFZ or isolated CLDIs were added at various concentrations in DMEM with 5% FBS to 6-well plates containing 4×10^5 cells/well and incubated (24 h at 37° C. and 5% CO2). Culture supernatants were harvested at 24 h, centrifuged (1500×g for 5 min), and stored (−20° C.) in frozen aliquots prior to analysis. For experiments involving TLR stimulation, cells were washed twice with pre-warmed DPBS to remove extracellular, non-phagocytosed CLDIs or CFZ, and then the cells were serum-starved for 18 h in DMEM. Supernatants were collected from unstimulated cells and cells stimulated with 200 ng/ml Pam3 or 1 μg/ml LPS in DMEM.
The media of cells with or without 6 h TLR stimulation by Pam3 or LPS was harvested, and TNFα and IL-1RA levels were measured by ELISA (Duoset, R&D Systems, Minneapolis, Minn.) in duplicate wells according to the manufacturer's instructions. The cytokine concentrations were expressed as picogram per milligram of cell lysate. Experiments were repeated three times and values are expressed as the mean±SD.

[3] = mice; cited from earlier work
[4] = 2 weeks of oral drug administration

CC(C)/N=c1\cc2n(-c3ccc(Cl)cc3)c3ccccc3nc-2cc1Nc1ccc(Cl)cc1 [CFZ, 3-(p-chloroanilino)-10-(p-chlorophenyl)-2, 10-dihydro-2-isopropyliminophenazine]
mitochondrial membrane potential (Mitotracker Red staining) (RAW 264.7 cells): diffuse cytoplasmic MTR staining, indicative of mitochondrial membrane depolarization
nuclear MTR signal vs untreated cells (RAW 264.7 cells): 4 fold
CLDI+ alveolar macrophages (alveolar macrophages; C57BL/6 (wild-type)): 65%
CLDI+ alveolar macrophages (alveolar macrophages; IL-1RA−/−): 60%
TNFα expression in organs ([1]; 2 and 8 weeks, except liver at 2 weeks): unchanged by CFZ at both 2 and 8 weeks
cleavage of hepatic caspase 1 and IL-1β ([1]; 2 weeks of CFZ): only moderate cleavage of hepatic caspase 1 and IL-1β
IL-1RA in the liver [1, 4]: did not cause significant IL-1RA change in the liver
spleen and lung IL-1RA levels [1, 4]: slightly increased
IL-1RA levels in the kidney ([1]; 8 weeks): unchanged
hepatic caspase 1 cleavage and IL-1β maturation ([1]; 8 weeks of CFZ): significantly reduced
IL-1RA expression in liver, spleen and lung ([1]; 8 weeks of oral administration): major upregulation of IL-1RA expression
IL-1β levels in the spleen, lung and kidney ([1]; mouse, in vivo): did not change
serum IL-1RA levels (IL-1RA, TNFα, IL-1β; 8 weeks): increase in serum IL-1RA levels
TNFα or IL-1β in the serum (IL-1RA, TNFα, IL-1β; all conditions): not possible to detect
pharmacokinetic half-life t1/2 [2]: ~70 days
inhibition at 2 µM (TLR4; 2 μM): 51.2%
inhibition at 4 µM (TLR4; 4 μM): 76.5%
pharmacokinetic half-life t1/2 [3]: ~7 days

Source: patent publication US20160220710A1, “COMPOSITIONS AND METHODS FOR DELIVERING PHARMACEUTICAL AGENTS” (THE REGENTS OF THE UNIVERSITY OF MICHIGAN, priority 2015, published 2016)
